The values that follow come from US20050282743A1, “Molecular interactions in cells” (Arbor Vita Corporation, priority 2001, published 2005).

Type in all cases: binding
The target in assay [1] is PDZ-domain polypeptide (GST/PDZ fusion protein). Description: Apparent affinity (Kd) by titration of PL peptide in the G assay. The settings on record: read-out: Peptide Optimal Conc (Kd by titration of the PL peptide). The procedure, abridged: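 A fixed concentration of GST/PDZ fusion protein, 5 ug/ml by default, was mixed in solution with increasing labeled PL peptide (e.g. 0.1 uM-1 mM). Reaction times ranged from 10 minutes to 2 days at 4-37° C. Complexes were separated from free peptide and detected via the label as in the G assay, apparent affinity coming from the saturating concentration.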

Assay [2] has as its target T1, PDZ protein (GST-PDZ fusion) (Homo sapiens, UniProt O14907).
T1 construct: made in house; host or cells: E. coli (DH5alpha, BL21 or JM109)
T1 sequence (O14907 1-124): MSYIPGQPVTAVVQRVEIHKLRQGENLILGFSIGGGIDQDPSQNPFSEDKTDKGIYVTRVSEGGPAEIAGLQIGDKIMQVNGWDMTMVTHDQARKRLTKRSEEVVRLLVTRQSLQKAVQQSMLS
In words: G' assay (10 uM PL peptide), results of TABLE 7 and TABLE 12. The settings on record: PDZ TIP1, PDZ Domain 1. In a few lines:
(§1)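 Biotin-PL peptide (N-term label), 10 uM vs GST-PDZ; protein 5 ug/ml by default. A450 nm binned: 1 = 0-1, 2 = 1-2, 3 = 2-3, 4 = 3-4, 5 = >4 on >2 repeats, 0 = no binding.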

In assay [3] the target is T2, PDZ protein (GST-PDZ fusion) (Homo sapiens, UniProt Q8NI35).
T2 construct: made in house; host or cells: E. coli (DH5alpha, BL21 or JM109)
T2 sequence (Q8NI35 whole entry, the tested form may be a part): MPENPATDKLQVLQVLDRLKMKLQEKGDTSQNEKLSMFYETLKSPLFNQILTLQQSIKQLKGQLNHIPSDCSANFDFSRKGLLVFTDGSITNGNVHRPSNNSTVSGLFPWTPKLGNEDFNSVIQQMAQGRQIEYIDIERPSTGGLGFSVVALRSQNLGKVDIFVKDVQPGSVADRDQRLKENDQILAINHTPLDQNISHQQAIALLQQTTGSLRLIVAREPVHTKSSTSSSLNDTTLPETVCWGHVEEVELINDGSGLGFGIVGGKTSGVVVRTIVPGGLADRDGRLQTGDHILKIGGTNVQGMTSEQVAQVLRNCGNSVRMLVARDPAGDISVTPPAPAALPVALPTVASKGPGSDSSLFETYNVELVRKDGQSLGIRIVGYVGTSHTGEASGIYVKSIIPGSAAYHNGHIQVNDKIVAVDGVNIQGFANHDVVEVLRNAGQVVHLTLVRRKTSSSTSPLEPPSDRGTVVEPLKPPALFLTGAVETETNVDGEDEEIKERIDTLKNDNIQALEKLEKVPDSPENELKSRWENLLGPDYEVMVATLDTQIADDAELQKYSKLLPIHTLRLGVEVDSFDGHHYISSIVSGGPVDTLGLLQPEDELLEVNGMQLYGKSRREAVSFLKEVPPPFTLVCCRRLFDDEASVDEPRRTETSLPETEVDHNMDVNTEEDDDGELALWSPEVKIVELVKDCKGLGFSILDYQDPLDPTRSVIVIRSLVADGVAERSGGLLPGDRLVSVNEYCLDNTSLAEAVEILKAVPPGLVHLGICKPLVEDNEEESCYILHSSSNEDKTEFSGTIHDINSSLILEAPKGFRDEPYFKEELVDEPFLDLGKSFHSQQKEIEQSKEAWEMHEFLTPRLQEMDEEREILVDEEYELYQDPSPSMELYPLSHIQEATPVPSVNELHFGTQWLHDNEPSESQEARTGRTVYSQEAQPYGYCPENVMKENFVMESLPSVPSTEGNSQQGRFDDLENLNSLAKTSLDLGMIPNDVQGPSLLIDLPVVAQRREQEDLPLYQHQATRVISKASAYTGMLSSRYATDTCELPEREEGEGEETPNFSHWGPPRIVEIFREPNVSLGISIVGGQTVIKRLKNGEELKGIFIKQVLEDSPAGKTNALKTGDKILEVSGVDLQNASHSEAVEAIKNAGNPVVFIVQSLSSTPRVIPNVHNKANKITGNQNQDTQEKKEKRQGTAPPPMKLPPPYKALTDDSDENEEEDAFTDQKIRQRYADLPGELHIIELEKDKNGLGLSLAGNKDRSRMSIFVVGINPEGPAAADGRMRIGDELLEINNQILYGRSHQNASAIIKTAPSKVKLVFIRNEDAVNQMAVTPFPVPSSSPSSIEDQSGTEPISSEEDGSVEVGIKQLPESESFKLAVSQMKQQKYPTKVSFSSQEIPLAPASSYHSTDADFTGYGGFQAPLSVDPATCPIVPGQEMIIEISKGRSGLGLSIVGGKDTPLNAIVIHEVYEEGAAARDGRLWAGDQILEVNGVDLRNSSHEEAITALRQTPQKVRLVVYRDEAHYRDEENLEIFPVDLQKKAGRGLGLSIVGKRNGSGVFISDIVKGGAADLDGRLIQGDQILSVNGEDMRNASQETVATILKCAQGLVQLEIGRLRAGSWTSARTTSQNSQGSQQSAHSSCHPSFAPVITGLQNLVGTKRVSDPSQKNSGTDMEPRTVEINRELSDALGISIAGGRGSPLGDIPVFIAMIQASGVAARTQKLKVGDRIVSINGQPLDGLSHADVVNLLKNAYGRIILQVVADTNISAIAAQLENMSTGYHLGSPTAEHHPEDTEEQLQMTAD
The description is as above. As to conditions: PDZ INADL. In a few lines: as §1

The target of assay [4] is T3, PDZ protein (GST-PDZ fusion) (Homo sapiens, UniProt P78352).
T3 construct: made in house; host or cells: E. coli (DH5alpha, BL21 or JM109)
Described as above. The settings on record: PDZ PSD95, PDZ Domain 1, 2, 3. The procedure, abridged:
as §1

Assay [5] deals with T4, PDZ protein (GST-PDZ fusion) (Homo sapiens, UniProt Q12959).
T4 construct: made in house; host or cells: E. coli (DH5alpha, BL21 or JM109)
The description is as above. As to conditions: PDZ DLG1, PDZ Domain 1, 2. In a few lines: as §1

For assay [6], the target named is T5, PDZ protein (GST-PDZ fusion) (Homo sapiens, UniProt Q9BYB0).
T5 construct: made in house; host or cells: E. coli (DH5alpha, BL21 or JM109)
The assay is described as above. The settings on record: PDZ SHANK3, PDZ Domain 1. In a few lines: as §1

The target of assay [7] is T6, PDZ protein (GST-PDZ fusion) (Homo sapiens, UniProt Q86UL8).
T6 construct: made in house; host or cells: E. coli (DH5alpha, BL21 or JM109)
T6 sequence (Q86UL8 whole entry, the tested form may be a part): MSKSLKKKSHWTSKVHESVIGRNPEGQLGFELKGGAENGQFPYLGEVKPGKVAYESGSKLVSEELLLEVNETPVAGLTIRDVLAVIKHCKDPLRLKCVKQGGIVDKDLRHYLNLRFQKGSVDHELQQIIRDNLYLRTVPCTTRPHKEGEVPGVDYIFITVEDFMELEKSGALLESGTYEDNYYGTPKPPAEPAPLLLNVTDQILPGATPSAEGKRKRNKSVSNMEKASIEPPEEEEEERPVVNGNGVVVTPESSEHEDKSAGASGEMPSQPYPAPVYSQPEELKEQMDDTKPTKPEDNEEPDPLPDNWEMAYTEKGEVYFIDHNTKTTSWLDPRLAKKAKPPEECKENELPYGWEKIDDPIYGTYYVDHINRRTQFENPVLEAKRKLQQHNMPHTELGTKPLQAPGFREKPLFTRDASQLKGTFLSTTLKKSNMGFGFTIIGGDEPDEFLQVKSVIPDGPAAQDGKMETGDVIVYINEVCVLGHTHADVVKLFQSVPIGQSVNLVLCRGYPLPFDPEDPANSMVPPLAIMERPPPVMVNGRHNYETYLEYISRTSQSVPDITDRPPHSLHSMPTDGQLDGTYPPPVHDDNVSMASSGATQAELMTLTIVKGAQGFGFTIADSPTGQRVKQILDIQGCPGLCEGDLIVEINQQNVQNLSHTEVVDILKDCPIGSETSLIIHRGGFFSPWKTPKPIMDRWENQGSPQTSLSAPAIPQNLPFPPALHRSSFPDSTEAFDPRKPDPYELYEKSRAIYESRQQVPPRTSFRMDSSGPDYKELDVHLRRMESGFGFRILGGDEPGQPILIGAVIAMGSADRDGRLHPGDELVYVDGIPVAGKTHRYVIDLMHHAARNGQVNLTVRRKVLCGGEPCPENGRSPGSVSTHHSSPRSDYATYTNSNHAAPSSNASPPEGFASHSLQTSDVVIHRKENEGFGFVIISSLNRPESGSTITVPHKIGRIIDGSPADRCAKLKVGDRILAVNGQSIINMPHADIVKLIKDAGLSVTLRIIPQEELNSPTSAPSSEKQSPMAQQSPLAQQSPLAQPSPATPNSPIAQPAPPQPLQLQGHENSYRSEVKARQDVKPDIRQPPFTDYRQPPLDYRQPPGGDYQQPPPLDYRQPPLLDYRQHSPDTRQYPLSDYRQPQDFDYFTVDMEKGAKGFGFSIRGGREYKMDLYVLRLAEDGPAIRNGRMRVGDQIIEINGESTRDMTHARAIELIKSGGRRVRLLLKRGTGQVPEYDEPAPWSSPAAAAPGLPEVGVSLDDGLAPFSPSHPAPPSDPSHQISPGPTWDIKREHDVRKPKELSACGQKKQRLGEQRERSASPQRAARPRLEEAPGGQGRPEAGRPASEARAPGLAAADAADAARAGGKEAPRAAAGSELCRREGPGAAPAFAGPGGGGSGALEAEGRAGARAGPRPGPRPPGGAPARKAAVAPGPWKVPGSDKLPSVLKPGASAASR
The assay is described as above. The procedure, abridged:
as §1

Assay [8] deals with T7, PDZ protein (GST-PDZ fusion) (Homo sapiens, UniProt Q14160).
T7 construct: made in house; host or cells: E. coli (DH5alpha, BL21 or JM109)
The description is as above. As to conditions: PDZ KIAA0147, PDZ Domain 1. The procedure, abridged:
as §1

For assay [9], the target named is T8, PDZ protein (GST-PDZ fusion) (Homo sapiens, UniProt Q9NZN5).
T8 construct: made in house; host or cells: E. coli (DH5alpha, BL21 or JM109)
The assay is described as above. As to conditions: PDZ KIAA0382, PDZ Domain 1. In a few lines: as §1

The target in assay [10] is T9, PDZ protein (GST-PDZ fusion) (Homo sapiens, UniProt Q13796).
T9 construct: made in house; host or cells: E. coli (DH5alpha, BL21 or JM109)
T9 sequence (Q13796 whole entry, the tested form may be a part): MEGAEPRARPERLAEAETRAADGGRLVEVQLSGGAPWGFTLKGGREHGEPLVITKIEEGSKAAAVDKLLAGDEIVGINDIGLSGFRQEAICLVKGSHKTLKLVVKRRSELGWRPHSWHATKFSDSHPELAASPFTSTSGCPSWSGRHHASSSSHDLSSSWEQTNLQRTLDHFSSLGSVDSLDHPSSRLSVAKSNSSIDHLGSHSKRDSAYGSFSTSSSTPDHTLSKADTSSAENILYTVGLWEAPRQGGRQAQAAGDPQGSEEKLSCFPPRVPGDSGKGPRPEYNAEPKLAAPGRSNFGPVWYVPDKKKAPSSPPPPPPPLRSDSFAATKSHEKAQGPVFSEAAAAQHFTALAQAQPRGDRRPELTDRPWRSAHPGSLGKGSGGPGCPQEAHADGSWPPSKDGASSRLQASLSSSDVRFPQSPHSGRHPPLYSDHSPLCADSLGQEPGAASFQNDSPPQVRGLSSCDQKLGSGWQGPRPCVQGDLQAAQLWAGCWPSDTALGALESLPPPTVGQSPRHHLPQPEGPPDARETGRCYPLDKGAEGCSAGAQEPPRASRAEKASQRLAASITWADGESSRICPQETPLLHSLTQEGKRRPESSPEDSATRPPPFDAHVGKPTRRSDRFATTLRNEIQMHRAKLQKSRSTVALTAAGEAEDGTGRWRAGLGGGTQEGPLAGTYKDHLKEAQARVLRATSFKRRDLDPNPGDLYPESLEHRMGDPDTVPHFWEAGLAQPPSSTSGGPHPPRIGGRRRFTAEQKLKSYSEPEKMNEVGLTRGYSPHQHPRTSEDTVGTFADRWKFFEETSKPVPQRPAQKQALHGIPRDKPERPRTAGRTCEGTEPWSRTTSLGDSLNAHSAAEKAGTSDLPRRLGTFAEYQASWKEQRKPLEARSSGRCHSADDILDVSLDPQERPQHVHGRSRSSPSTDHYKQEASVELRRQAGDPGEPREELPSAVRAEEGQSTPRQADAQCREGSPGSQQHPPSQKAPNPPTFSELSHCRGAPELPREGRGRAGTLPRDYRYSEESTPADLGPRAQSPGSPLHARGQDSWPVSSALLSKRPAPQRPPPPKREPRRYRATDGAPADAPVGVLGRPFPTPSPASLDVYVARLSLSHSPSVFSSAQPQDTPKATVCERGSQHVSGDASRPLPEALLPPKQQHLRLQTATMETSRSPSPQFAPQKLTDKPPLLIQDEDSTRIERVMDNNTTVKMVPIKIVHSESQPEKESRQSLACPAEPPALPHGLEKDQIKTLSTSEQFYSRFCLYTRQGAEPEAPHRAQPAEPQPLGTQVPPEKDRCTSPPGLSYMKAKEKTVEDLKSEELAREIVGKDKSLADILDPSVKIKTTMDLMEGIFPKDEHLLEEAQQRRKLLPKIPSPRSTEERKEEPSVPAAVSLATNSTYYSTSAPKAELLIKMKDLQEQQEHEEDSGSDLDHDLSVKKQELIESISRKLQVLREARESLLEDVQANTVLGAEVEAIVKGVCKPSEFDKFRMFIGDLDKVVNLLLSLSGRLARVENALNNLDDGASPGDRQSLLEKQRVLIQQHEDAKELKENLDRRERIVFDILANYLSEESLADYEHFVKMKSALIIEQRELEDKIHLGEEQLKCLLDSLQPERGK
The description is as above. The settings on record: PDZ hAPXL, PDZ Domain 1. The procedure, abridged: as §1

Where [11] appears, read: PDZ atrophin-1 interacting Protein, PDZ Domain 1.
Where [12] appears, read: PDZ Atrophin-1 Inter. Prot., PDZ Domain 5.

Read-outs that look alike come from different tables or passages of the source. Ends that are not written are not given here. Peptide text beside a SMILES is read from it. * marks the point of attachment. Biotin = O=C1N[C@H]2[C@H](CS[C@H]2CCCCC(=O)*)N1

Turning to `CC(C)C[C@H](NC(=O)CNC(=O)[C@@H](NC(=O)[C@H](CO)NC(=O)[C@H](CC(N)=O)NC(=O)[C@H](Cc1ccccc1)NC(=O)CNC(=O)[C@H](C)NC(=O)[C@H](C)NC(=O)[C@H](Cc1ccccc1)NC(=O)[C@@H](NC(=O)CCCC[C@@H]1SC[C@@H]2NC(=O)N[C@@H]21)[C@@H](C)O)[C@@H](C)O)C(=O)N1CCC[C@H]1C(=O)N[C@@H](Cc1c[nH]cn1)C(=O)N[C@@H](CO)C(=O)N[C@H](C(=O)N[C@H](C(=O)N[C@@H](CCCNC(=N)N)C(=O)N[C@H](C(=O)O)C(C)C)[C@@H](C)O)[C@@H](C)O` [Neuroligin] (Biotin-TFAAGFNSTGLPHSTTRV-OH; C-terminus assumed), the Kd in assay [1] (PDZ SHANK, PDZ Domain 1) stood at 300 nM. Moreover, the Classification in assay [2] is listed as 1 (A450 nm 0-1); in [3] (PDZ Domain 8), 1 (A450 nm 0-1); in assay [4], 2 (A450 nm 1-2); in assay [5] it was 2 (A450 nm 1-2); in assay [6], 3 (A450 nm 2-3); in [7] (setting [11]) it was 2 (A450 nm 1-2).
As for `CC(C)C[C@H](NC(=O)[C@H](C)NC(=O)[C@@H](NC(=O)[C@@H](NC(=O)[C@H](Cc1c[nH]cn1)NC(=O)[C@H](CC(C)C)NC(=O)CNC(=O)[C@H](CCC(N)=O)NC(=O)CNC(=O)CNC(=O)[C@H](C)NC(=O)[C@H](C)NC(=O)[C@H](CCCNC(=N)N)NC(=O)[C@H](C)NC(=O)[C@H](CO)NC(=O)[C@H](CC(=O)O)NC(=O)[C@H](CC(=O)O)NC(=O)[C@H](Cc1c[nH]c2ccccc12)NC(=O)[C@H](C)NC(=O)CCCC[C@@H]1SC[C@@H]2NC(=O)N[C@@H]21)C(C)C)[C@@H](C)O)C(=O)O` [LPAP] (Biotin-AWDDSARAAGGQGLHVTAL-OH; C-terminus assumed), the Kd in assay [1] (PDZ FLJ 00011, PDZ Domain 1) is 1500 nM. For the same compound, the Classification in assay [8] is reported as 3 (A450 nm 2-3); in assay [9], 5 (A450 nm of 4 more than 2× repeated); in assay [10], 1 (A450 nm 0-1); in assay [6], 3 (A450 nm 2-3); in [7] (setting [12]), 2 (A450 nm 1-2).
Regarding `CC[C@H](C)[C@H](NC(=O)[C@H](CO)NC(=O)[C@H](CCC(=O)O)NC(=O)[C@H](Cc1ccc(O)cc1)NC(=O)[C@H](CC(=O)O)NC(=O)[C@H](CC(N)=O)NC(=O)[C@H](CCC(=O)O)NC(=O)[C@H](CCCCN)NC(=O)CCCC[C@@H]1SC[C@@H]2NC(=O)N[C@@H]21)C(=O)N[C@@H](CO)C(=O)N[C@@H](CC(=O)O)C(=O)N[C@@H](CC(C)C)C(=O)N[C@@H](CCC(N)=O)C(=O)N[C@@H](CCC(N)=O)C(=O)NCC(=O)N[C@@H](CCCNC(=N)N)C(=O)N[C@@H](CC(=O)O)C(=O)N[C@H](C(=O)N[C@H](C(=O)N[C@@H](CCCNC(=N)N)C(=O)N[C@@H](CC(C)C)C(=O)O)[C@@H](C)O)[C@@H](C)CC` [PAG] (Biotin-KENDYESISDLQQGRDITRL-OH; C-terminus assumed), the Classification in assay [9] is recorded as 1 (A450 nm 0-1); in assay [10], 2 (A450 nm 1-2); in assay [6], 2 (A450 nm 1-2); in assay [7] (setting [12]), 1 (A450 nm 0-1).
Consider “LASKSAEEGKQIPDSLSTDL (Biotin-LASKSAEEGKQIPDSLSTDL) [Dock2]”, for which the Classification in [8] was 1 (A450 nm 0-1); in assay [3] (PDZ Domain 3), 1 (A450 nm 0-1); in assay [9], 1 (A450 nm 0-1); in assay [10], 2 (A450 nm 1-2); in [6] it was 1 (A450 nm 0-1); in assay [7] (setting [12]), 1 (A450 nm 0-1).
Regarding `CC[C@H](C)[C@H](NC(=O)CNC(=O)[C@H](CO)NC(=O)[C@H](Cc1ccccc1)NC(=O)[C@@H](NC(=O)[C@H](CS)NC(=O)CNC(=O)CNC(=O)[C@H](C)NC(=O)[C@@H]1CCCN1C(=O)[C@@H](NC(=O)[C@@H]1CCCN1C(=O)CCCC[C@@H]1SC[C@@H]2NC(=O)N[C@@H]21)[C@@H](C)CC)[C@@H](C)O)C(=O)N[C@@H](Cc1ccccc1)C(=O)N1CCC[C@H]1C(=O)N[C@H](C(=O)N[C@@H](CC(C)C)C(=O)N[C@H](C(=O)N[C@@H](CO)C(=O)N1CCC[C@H]1C(=O)N[C@@H](CC(C)C)C(=O)O)[C@@H](C)O)[C@@H](C)O` [KIA 1481] (Biotin-PIPAGGCTFSGIFPTLTSPL-OH; C-terminus assumed), the Classification in [8] is recorded as 2 (A450 nm 1-2); in [2], 2 (A450 nm 1-2); in [3] (PDZ Domain 5) it was 1 (A450 nm 0-1); in assay [9], 5 (A450 nm of 4 more than 2× repeated); in assay [10] it was 5 (A450 nm of 4 more than 2× repeated); in [6] it was 3 (A450 nm 2-3).
Regarding `CC[C@H](C)[C@H](NC(=O)[C@H](CC(=O)O)NC(=O)[C@H](CCC(=O)O)NC(=O)[C@H](CCCNC(=N)N)NC(=O)[C@@H](NC(=O)CCCC[C@@H]1SC[C@@H]2NC(=O)N[C@@H]21)[C@@H](C)O)C(=O)N[C@@H](Cc1ccc(O)cc1)C(=O)N[C@H](C(=O)N[C@@H](CC(N)=O)C(=O)N[C@@H](Cc1ccc(O)cc1)C(=O)N1CCC[C@H]1C(=O)N[C@H](C(=O)N[C@@H](Cc1ccccc1)C(=O)N[C@@H](CO)C(=O)N[C@@H](CCCNC(=N)N)C(=O)N[C@@H](CCCNC(=N)N)C(=O)N1CCC[C@H]1C(=O)N[C@@H](CCCCN)C(=O)N[C@H](C(=O)N[C@@H](CCCNC(=N)N)C(=O)N[C@H](C(=O)O)C(C)C)[C@@H](C)O)[C@@H](C)O)C(C)C` [DNAM-1] (Biotin-TREDIYVNYPTFSRRPKTRV-OH; C-terminus assumed), the Kd in assay [1] (PDZ BAI-1, PDZ Domain 2) is 4000 nM. In addition, the Classification in [2] is 1 (A450 nm 0-1); in assay [3] (PDZ Domain 8), 5 (A450 nm of 4 more than 2× repeated); in [6], 2 (A450 nm 1-2); in assay [7] (setting [11]) it was 3 (A450 nm 2-3).
